Values quoted from earlier work in patent publication US20050142194A1, “Composition comprising CS” (ALTERGON S.A., priority 2003, published 2005).

Assays:
[1] = general statement of the prior art part
pepsin = details: prior art statement, middle of the twentieth century

| solubility in water [1] | Substance | action on the proteolytic activity of pepsin (pepsin) |
| --- | --- | --- |
| poorly soluble in water | chondroitin sulfate | clear inhibitory action |
| poorly soluble in water | sodium chondroitin sulfate |  |
